Reference: patent publication US20180148418A1, “AMIDO-SUBSTITUTED CYCLOHEXANE DERIVATIVES” (Bayer Pharma Aktiengesellschaft, priority 2015, published 2018)

Legend:
[1] = biological target: T1, TNKS2 (Homo sapiens, UniProt Q9H2K2); assay: TNKS2 Assay B (auto-parsylation, [3H]-NAD+ SPA); format: biochemical; settings: 6 nM TNKS2, auto-parsylation, over night at room temperature
T1 construct: purchased BPS Bioscience, San Diego, USA 80572 (TNKS2 Histone Ribosylation Assay Kit)
T1 sequence (Q9H2K2 1-1166): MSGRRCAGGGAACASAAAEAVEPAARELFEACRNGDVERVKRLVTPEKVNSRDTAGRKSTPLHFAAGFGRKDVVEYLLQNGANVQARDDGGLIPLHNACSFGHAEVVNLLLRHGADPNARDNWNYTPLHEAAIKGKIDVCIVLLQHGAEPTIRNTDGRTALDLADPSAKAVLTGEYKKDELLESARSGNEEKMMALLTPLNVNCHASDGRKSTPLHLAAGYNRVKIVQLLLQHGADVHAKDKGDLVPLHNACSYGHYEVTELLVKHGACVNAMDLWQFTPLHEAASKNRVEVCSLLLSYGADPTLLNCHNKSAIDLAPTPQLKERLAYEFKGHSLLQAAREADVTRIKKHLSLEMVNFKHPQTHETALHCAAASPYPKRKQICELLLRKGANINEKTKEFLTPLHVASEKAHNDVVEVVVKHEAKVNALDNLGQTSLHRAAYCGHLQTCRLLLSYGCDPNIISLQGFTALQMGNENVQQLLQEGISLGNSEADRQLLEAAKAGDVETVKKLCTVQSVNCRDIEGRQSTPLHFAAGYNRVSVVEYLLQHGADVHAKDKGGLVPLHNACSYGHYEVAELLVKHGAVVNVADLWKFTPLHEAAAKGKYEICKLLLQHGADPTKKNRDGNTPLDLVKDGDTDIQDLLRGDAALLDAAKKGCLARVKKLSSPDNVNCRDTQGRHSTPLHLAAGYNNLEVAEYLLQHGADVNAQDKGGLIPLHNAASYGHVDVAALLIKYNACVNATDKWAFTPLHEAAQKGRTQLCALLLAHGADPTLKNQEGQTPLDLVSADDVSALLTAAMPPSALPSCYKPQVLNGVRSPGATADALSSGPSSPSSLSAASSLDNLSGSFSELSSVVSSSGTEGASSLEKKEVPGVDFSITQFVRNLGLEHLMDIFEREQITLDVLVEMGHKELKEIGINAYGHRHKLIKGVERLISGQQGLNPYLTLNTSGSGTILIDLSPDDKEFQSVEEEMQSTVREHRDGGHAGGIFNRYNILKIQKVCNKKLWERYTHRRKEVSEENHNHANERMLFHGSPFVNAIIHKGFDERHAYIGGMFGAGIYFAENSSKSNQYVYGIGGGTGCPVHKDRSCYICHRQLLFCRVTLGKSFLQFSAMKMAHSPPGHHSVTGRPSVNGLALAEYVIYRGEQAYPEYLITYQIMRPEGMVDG

[2] = test system: wildtype Wnt signaling cascade; assay: HEK293 TOP assay (Super TopFlash luciferase reporter, Wnt-3a stimulated); format: cell-based; settings: Homo sapiens, HEK293, 16 h, HEK293 TOP reporter cells, Wnt3a at EC50, 16 hours
Method in brief: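 HEK293 cells stably carrying Super TopFlash (TOP) run in parallel with FOP cells, 10000/well plated 24 h ahead, stimulated with recombinant human Wnt-3a. Compounds tested 50 μM to 15 nM in 3.16-fold steps in CAFTY buffer pH 7.4 with 2 mM Ca^2+ and 0.01% BSA; luciferase read-out.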

| IC50 [1] [µM] | IC50 [2] [µM] | SMILES |
| --- | --- | --- |
| 0.066 | 0.088 | Cc1cnc2c(C(=O)N[C@H]3CC[C@H](C(=O)Nc4ccncc4Cl)CC3)cnn2c1 [Example 104, N-{trans-4-[(3-chloropyridin-4-yl)carbamoyl]cyclohexyl}-6-methyl pyrazolo[1,5-a]pyrimidine-3-carboxamide] |
| 0.12 | 0.24 | O=C(N[C@H]1CC[C@H](C(=O)Nc2ccncc2Cl)CC1)c1cnn2cccnc12 [Example 105, N-{trans-4-[(3-chloropyridin-4-yl)carbamoyl]cyclohexyl}pyrazolo[1,5-a]pyrimidine-3-carboxamide] |
| 0.015 | 0.4 | CCOC(=O)c1cnc2c(C(=O)N[C@H]3CC[C@H](C(=O)Nc4ccc(F)cc4Cl)CC3)cnn2c1 [Example 106, ethyl 3-({trans-4-[(2-chloro-4-fluorophenyl)carbamoyl]cyclohexyl}carbamoyl)pyrazolo[1,5-a]pyrimidine-6-carboxylate] |
| 0.074 | 0.88 | O=C(N[C@H]1CC[C@H](C(=O)Nc2ccc(F)cc2Cl)CC1)c1cnn2ccc(N3CCOCC3)nc12 [Example 107, N-{trans-4-[(2-chloro-4-fluorophenyl)carbamoyl]cyclohexyl}-5-(morpholin-4-yl)pyrazolo[1,5-a]pyrimidine-3-carboxamide] |
| 0.06 | 0.18 | O=C(N[C@H]1CC[C@H](C(=O)Nc2ccc(F)cc2Cl)CC1)c1cnn2ccc(N3CCCC3)nc12 [Example 108] |
| 0.038 | 3 | CN1CCN(c2ccn3ncc(C(=O)N[C@H]4CC[C@H](C(=O)Nc5ccc(F)cc5Cl)CC4)c3n2)CC1 [Example 109] |
| 0.086 | 0.27 | COCc1cc(C)n2ncc(C(=O)N[C@H]3CC[C@H](C(=O)Nc4ccc(F)cc4Cl)CC3)c2n1 [Example 110, N-{trans-4-[(2-chloro-4-fluorophenyl)carbamoyl]cyclohexyl}-5-(methoxymethyl)-7-methylpyrazolo[1,5-a]pyrimidine-3-carboxamide] |
| 0.21 | 0.073 | COCc1cc(C)nc2c(C(=O)N[C@H]3CC[C@H](C(=O)Nc4ccc(F)cc4Cl)CC3)cnn12 [Example 111, N-{trans-4-[(2-chloro-4-fluorophenyl)carbamoyl]cyclohexyl}-7-(methoxymethyl)-5-methylpyrazolo[1,5-a]pyrimidine-3-carboxamide] |
| 0.068 | 0.19 | COCc1cc(C)n2ncc(C(=O)N[C@H]3CC[C@H](C(=O)Nc4c(F)cc(F)cc4Cl)CC3)c2n1 [Example 112, N-{trans-4-[(2-chloro-4,6-difluorophenyl)carbamoyl]cyclohexyl}-5-(methoxymethyl)-7-methylpyrazolo[1,5-a]pyrimidine-3-carboxamide] |
| 0.052 | 0.094 | Cc1nc2c(C(=O)N[C@H]3CC[C@H](C(=O)Nc4ccc(F)cc4Cl)CC3)cnn2c2c1CCC2 [Example 113, N-{trans-4-[(2-chloro-4-fluorophenyl)carbamoyl]cyclohexyl}-5-methyl-7,8-dihydro-6H-cyclopenta[e]pyrazolo[1,5-a]pyrimidine-3-carboxamide] |
| 0.48 | 1.6 | CC(O)CNc1ccc2ncc(C(=O)N[C@H]3CC[C@H](C(=O)Nc4ccc(F)cc4Cl)CC3)n2n1 (stereo partly drawn) [Example 114, N-{trans-4-[(2-chloro-4-fluorophenyl)carbamoyl]cyclohexyl}-6-[(2-hydroxypropyl)amino]imidazo[1,2-b]pyridazine-3-carboxamide] |
| 0.19 | 0.18 | CNC(=O)c1[nH]cnc1C(=O)NC12CCC(C(=O)Nc3ccc(F)cc3Cl)(CC1)CC2 [Example 115, N^4-{4-[(2-chloro-4-fluorophenyl)carbamoyl]bicyclo[2.2.2]oct-1-yl}-N^5-methyl-1H-imidazole-4,5-dicarboxamide] |
| 0.59 | 0.33 | CNC(=O)c1[nH]cnc1C(=O)NC12CCC(C(=O)Nc3c(F)cc(F)cc3Cl)(CC1)CC2 [Example 116, N^4-{4-[(2-chloro-4,6-difluorophenyl)carbamoyl]bicyclo[2.2.2]oct-1-yl}-N^5-methyl-1H-imidazole-4,5-dicarboxamide] |
| 0.46 | 0.22 | O=C(NC12CCC(C(=O)Nc3ccc(F)cc3Cl)(CC1)CC2)c1cnn2cccnc12 [Example 117, N-{4-[(2-chloro-4-fluorophenyl)carbamoyl]bicyclo[2.2.2]oct-1-yl}pyrazolo[1,5-a]pyrimidine-3-carboxamide] |
| 0.067 | 0.3 | Cc1cc(NC(=O)C23CCC(NC(=O)c4cnn5cccnc45)(CC2)CC3)c(Cl)cc1F [Example 118, N-{4-[(2-chloro-4-fluoro-5-methylphenyl)carbamoyl]bicyclo[2.2.2]oct-1-yl}pyrazolo[1,5-a]pyrimidine-3-carboxamide] |
| 0.61 | 0.39 | O=C(NC12CCC(C(=O)Nc3c(F)cc(F)cc3Cl)(CC1)CC2)c1cnn2cccnc12 [Example 119, N-{4-[(2-chloro-4,6-difluorophenyl)carbamoyl]bicyclo[2.2.2]oct-1-yl}pyrazolo[1,5-a]pyrimidine-3-carboxamide] |
| 0.26 | 0.14 | O=C(NC12CCC(C(=O)Nc3cnccc3Cl)(CC1)CC2)c1cnn2cccnc12 [Example 120, N-{4-[(4-chloropyridin-3-yl)carbamoyl]bicyclo[2.2.2]oct-1-yl}pyrazolo[1,5-a]pyrimidine-3-carboxamide] |
| 0.33 | 0.03 | O=C(NC12CCC(C(=O)Nc3ccc(F)cc3Cl)(CC1)CC2)c1cnc2cccnn12 [Example 121, N-{4-[(2-chloro-4-fluorophenyl)carbamoyl]bicyclo[2.2.2]oct-1-yl}imidazo[1,2-b]pyridazine-3-carboxamide] |
| 0.19 | 0.47 | Cc1cc(NC(=O)C23CCC(NC(=O)c4cnc5cccnn45)(CC2)CC3)c(Cl)cc1F [Example 122, N-{4-[(2-chloro-4-fluoro-5-methylphenyl)carbamoyl]bicyclo[2.2.2]oct-1-yl}imidazo[1,2-b]pyridazine-3-carboxamide] |
| 0.48 | 0.66 | O=C(NC12CCC(C(=O)Nc3c(F)cc(F)cc3Cl)(CC1)CC2)c1cnc2cccnn12 [Example 123, N-{4-[(2-chloro-4,6-difluorophenyl)carbamoyl]bicyclo[2.2.2]oct-1-yl}imidazo[1,2-b]pyridazine-3-carboxamide] |
| 0.26 | 0.29 | O=C(NC12CCC(C(=O)Nc3cnccc3Cl)(CC1)CC2)c1cnc2cccnn12 [Example 124, N-{4-[(4-chloropyridin-3-yl)carbamoyl]bicyclo[2.2.2]oct-1-yl}imidazo[1,2-b]pyridazine-3-carboxamide] |
| 0.13 | 0.069 | Cc1cc(C)n2ncc(C(=O)NC34CCC(C(=O)Nc5ccc(F)cc5Cl)(CC3)CC4)c2n1 [Example 125, N-{4-[(2-chloro-4-fluorophenyl)carbamoyl]bicyclo[2.2.2]oct-1-yl}-5,7-dimethylpyrazolo[1,5-a]pyrimidine-3-carboxamide] |
| 0.065 | 0.19 | Cc1cc(C)n2ncc(C(=O)NC34CCC(C(=O)Nc5cc(C)c(F)cc5Cl)(CC3)CC4)c2n1 [Example 126, N-{4-[(2-chloro-4-fluoro-5-methylphenyl)carbamoyl]bicyclo[2.2.2]oct-1-yl}-5,7-dimethylpyrazolo[1,5-a]pyrimidine-3-carboxamide] |
| 0.3 | 0.22 | Cc1cc(C)n2ncc(C(=O)NC34CCC(C(=O)Nc5c(F)cc(F)cc5Cl)(CC3)CC4)c2n1 [Example 127, N-{4-[(2-chloro-4,6-difluorophenyl)carbamoyl]bicyclo[2.2.2]oct-1-yl}-5,7-dimethylpyrazolo[1,5-a]pyrimidine-3-carboxamide] |
| 0.096 | 0.24 | Cc1cc(C)n2ncc(C(=O)NC34CCC(C(=O)Nc5cnccc5Cl)(CC3)CC4)c2n1 [Example 128, N-{4-[(4-chloropyridin-3-yl)carbamoyl]bicyclo[2.2.2]oct-1-yl}-5,7-dimethylpyrazolo[1,5-a]pyrimidine-3-carboxamide] |
